{"source": "patent US20120003661A1", "about": "“METHODS AND DEVICES FOR THE SELECTIVE DETECTION OF MICROORGANISMS” (C3 JIAN, INC., priority 2010, published 2012)", "note": "“Also recorded” adds a separate entry of the source."}
{"tested_on": "bacteria, fungi, and/or yeasts", "format": "binding", "details": "microorganism(s) listed as target(s) of the targeting peptide; wrapped target lists given cell by cell"}
{"substance": "PF-138 (AVHHSLLFR)", "Target(s)": "S. epidermidis, M. luteus, P. mirabilis,; also recorded: E. coli, C. albicans,; also recorded: MRSA, C. jeikeium, C. jejuni"}
{"substance": "1T-257 (IILAKAADLAEIERIISEDPFKINEIANYDIIEFCPTKSSKAFEKVLK)", "Target(s)": "A. naeslundii, F. nucleatum, P. gingivalis,; also recorded: S. epidermidis, S. gordonii,; also recorded: S. mitis, S. mutans, S. oralis,; also recorded: S. salivarious, S. sanguinis"}
{"substance": "PF-126 (FSPEAFGIGAAGVLGSFVTGLLIGWVASLLRKAK)", "Target(s)": "S. epidermidis, M. luteus, P. mirabilis,; also recorded: E. coli, P. aeruginosa,; also recorded: C. albicans, MRSA, S. pneumoniae,; also recorded: E. faecalis, C. jeikeium,; also recorded: C. jejuni"}
{"substance": "PF-066 (IKGTVKAVDETTVVITVNGHGTELTFEKPAIKQVDPS)", "Target(s)": "M. luteus, E. coli, C. jeikeium"}
{"substance": "PF-150 (EIQAKGTG)", "Target(s)": "S. epidermidis, MRSA"}
{"substance": "PF-149 (GKVSVLTRVPRSLGGAPANQ)", "Target(s)": "S. epidermidis, M. luteus, E. coli,; also recorded: MRSA, C. jeikeium"}
{"substance": "PF-128 (GIKVVAARFEEIQFSENFDSIILA)", "Target(s)": "M. luteus, P. aeruginosa, E. faecalis"}
{"substance": "TT-311 (AIFDAMHNL)", "Target(s)": "S. mutans, S. sobrinus"}
{"substance": "1T-17 (NNAIVYIS)", "Target(s)": "yeast and hyphal forms"}
{"substance": "PF-151 (EEYPARVPLSGEDVTEARRH)", "Target(s)": "S. epidermidis, MRSA, E. faecalis,; also recorded: C. jeikeium"}
{"substance": "PF-163 (TSWLRAAERQEIGEPTKTFGEKTTSL)", "Target(s)": "S. epidermidis"}
{"substance": "1T-290 (IINQLNLILLRLMEILIL)", "Target(s)": "A. naeslundii, F. nucleatum, P. gingivalis,; also recorded: S. gordonii, S. mitis,; also recorded: S. mutans, S. oralis, S. salivarious,; also recorded: S. sanguinis"}
{"substance": "PF-142 (GIDRGCQAAR)", "Target(s)": "S. mutans"}
{"substance": "PF-134 (GKAMKRQDCSAL)", "Target(s)": "S. epidermidis, C. jeikeium"}
{"substance": "1T-250 (LVQGDTILIENHVGTPVKDDGKDCLIIREADVLAVVND)", "Target(s)": "S. mitis, S. mutans, S. oralis"}
{"substance": "1T-273 (YNEPNYKWLESYKIYKQRCEDRTGMYYTEET)", "Target(s)": "F. nucleatum, P. gingivalis, T. denticola,; also recorded: S. mitis, S. mutans, S. oralis"}
{"substance": "PF-021 (FSLNFSKQKYVTVN)", "Target(s)": "yeast and hyphal forms; also recorded: S. epidermidis, M. luteus, P. mirabilis,; also recorded: E. coli, C. albicans, E. faecalis,; also recorded: C. jeikeium"}
{"substance": "PF-056 (AEQLFGKQKQRGVDLFLNRLTIILSILFFVLMICISYLGM)", "Target(s)": "S. epidermidis, M. luteus, P. mirabilis,; also recorded: E. coli, P. aeruginosa,; also recorded: C. albicans, MRSA, S. pneumoniae,; also recorded: E. faecalis, C. jeikeium"}
{"substance": "PF-159 (TMAFVEKAQLRVPVGDDLPV)", "Target(s)": "S. epidermidis"}
{"substance": "1T-280 (TNNKNKVIIKAIKFKNKDFINLDLFIYRR)", "Target(s)": "A. naeslundii, F. nucleatum, P. gingivalis,; also recorded: T. denticola, S. gordonii,; also recorded: S. mitis, S. mutans, S. oralis,; also recorded: S. salivarious, S. sanguinis"}
{"substance": "PF-053 (KLFGQWGPELGSIYILPALIGSIILIAIVTLILRAMRK)", "Target(s)": "S. epidermidis, M. luteus, E. coli,; also recorded: P. aeruginosa, C. albicans,; also recorded: MRSA, S. pneumoniae, E. faecalis"}
{"substance": "PF-004 (ARLSKAIIIAVIVVYHLDVRGLF)", "Target(s)": "S. epidermidis, B. subtilis, B. fragilis,; also recorded: E. coli, P. aeruginosa, C. albicans,; also recorded: S. pneumoniae, E. faecalis,; also recorded: C. jeikeium"}
{"substance": "PF-104 (ERTAVNDLWI)", "Target(s)": "MRSA, C. jeikeium"}
{"substance": "1T-259 (EKLKKILLKLAVCGKAWYTL)", "Target(s)": "F. nucleatum, P. gingivalis, T. denticola,; also recorded: S. mitis, S. mutans, S. oralis,; also recorded: S. sanguinis"}
{"substance": "PF-064 (DYYGKE)", "Target(s)": "E. coli"}
{"substance": "PF-161 (RGRALASTATTRPARRRR)", "Target(s)": "S. epidermidis, M. luteus, E. coli,; also recorded: C. jejuni"}
{"substance": "Rv2660c (RSPDFVDETAGQSWCAILGLNQFH)", "Target(s)": "C. albicans"}
{"substance": "PF-022 (MINELKNKNSGIMNNYVVTKESKL)", "Target(s)": "M. luteus, P. mirabilis, E. coli, P. aeruginosa,; also recorded: C. albicans, MRSA,; also recorded: S. pneumoniae, E. faecalis, C. jeikeium,; also recorded: C. jejuni"}
{"substance": "1T-253 (KTKESLTQQEKKFLKDYDRKSLHHFRDILTYCFILDKLTNK)", "Target(s)": "A. naeslundii, F. nucleatum, P. gingivalis,; also recorded: S. epidermidis, S. gordonii,; also recorded: S. mitis, S. mutans, S. oralis,; also recorded: S. salivarious, S. sanguinis"}
{"substance": "PF-075 (FVNSLIMKDLSDNDMRFKYEYYNREKDT)", "Target(s)": "M. luteus, E. coli, P. aeruginosa,; also recorded: MRSA, C. jeikeium"}
{"substance": "PF-014 (HPTDNKHN)", "Target(s)": "E. coli, C. jeikeium"}
{"substance": "PF-634 (MPKARPVNHNKKKSKITIKSNFTLFYMFNP)", "Target(s)": "C. albicans hyphae"}
{"substance": "PF-047 (NQEPSLQQDKEQKDNKG)", "Target(s)": "S. mutans"}
{"substance": "1T-292 (IINQLNLILLRLMEILIL)", "Target(s)": "A. naeslundii, F. nucleatum, P. gingivalis,; also recorded: S. epidermidis, S. gordonii,; also recorded: S. mitis, S. mutans, S. oralis,; also recorded: S. salivarious, S. sanguinis"}
{"tested_on": "bacteria, fungi, and/or yeasts", "format": "binding", "details": "microorganism(s) that the targeting peptide binds, as listed in Table 2"}
{"substance": "PF-C075 (KALVISVFAIVFSIIFVKFFYWRDKK)", "Target(s)": "A. naeslundii, F. nucleatum, P. gingivalis,; also recorded: S. mutans, T. denticola"}
{"substance": "PF-S029 (TSDTQSQSPWLFDNADIVNIYPVQLMHSSDND)", "Target(s)": "M. luteus, P. mirabilis, E. coli, C. albicans,; also recorded: C. jeikeium, C. jejuni"}
{"substance": "PF-S007 (VVAGVVLLTALAVGSKRKEKKQIKEIQRLLAATR)", "Target(s)": "S. epidermidis, MRSA"}
{"substance": "PF-C137 (QRMYWFKRGFETGDFSAGDTFAELK)", "Target(s)": "A. naeslundii, F. nucleatum, P. gingivalis,; also recorded: S. mutans"}
{"substance": "PF-C071 (QVIVKIL)", "Target(s)": "A. naeslundii, F. nucleatum, S. mutans"}
{"substance": "PF-C068 (LNLFASI)", "Target(s)": "A. naeslundii, F. nucleatum, S. mutans"}
{"substance": "PF-C034 (HPMPITVRSRKPGPLTAPSEH)", "Target(s)": "S. mutans, E. coli"}
{"substance": "PF-C180 (TVEELDKAFTWGAAAALAIGVIAINVGLAAGYCYNNNDVF)", "Target(s)": "F. nucleatum, P. gingivalis, S. mutans,; also recorded: T. denticola"}
{"substance": "PF-799 (YTHYNTALSYALLLTNKSSVP)", "Target(s)": "S. mutans"}
{"substance": "PF-C098 (PETKGKVSAFVFGIVVANVIAVVYILYMLREIGIIQ)", "Target(s)": "A. naeslundii, F. nucleatum, P. gingivalis,; also recorded: S. mutans, T. denticola"}
{"substance": "PF-789 (PRGAQSGHG)", "Target(s)": "Mycobacteria spp."}
{"substance": "PF-798 (ALHSKGIKVMADWVPDQMYA)", "Target(s)": "S. mutans"}
{"substance": "PF-C058 (FETGFGDGYYMSLWGLNEKDEVCKVVIPFINPELID)", "Target(s)": "A. naeslundii, F. nucleatum, P. gingivalis,; also recorded: S. mutans"}
{"substance": "PF-C271 (FFPSYYSIIITYF)", "Target(s)": "A. naeslundii, F. nucleatum, P. gingivalis,; also recorded: S. mutans, T. denticola"}
{"tested_on": "bacteria, fungi, and/or yeasts", "format": "binding", "details": "microorganism(s) the targeting peptide binds, as listed in Table 2"}
{"substance": "1T-85 (VMASLTWRMRAASASLPTHSRTDA)", "Target(s)": "A. naeslundii, F. nucleatum, P. gingivalis,; also recorded: S. epidermidis, S. gordonii,; also recorded: S. mitis, S. mutans, S. oralis,; also recorded: S. salivarious, S. sanguinis"}
{"substance": "1T-143 (MPKRHYYKLEAKALQFGLPFAYSPIQLLK)", "Target(s)": "A. naeslundii, F. nucleatum, P. gingivalis,; also recorded: S. epidermidis, S. gordonii,; also recorded: S. mitis, S. mutans, S. oralis,; also recorded: S. salivarious, S. sanguinis"}
{"substance": "1T-163 (MENILIYIPMVLSPFGSGILLFLGKDRRYML)", "Target(s)": "A. naeslundii, F. nucleatum, P. gingivalis,; also recorded: S. epidermidis, S. gordonii,; also recorded: S. mitis, S. mutans, S. oralis,; also recorded: S. salivarious, S. sanguinis"}
{"substance": "1T-10 (SPAGLPGDGDEA)", "Target(s)": "M. xanthus"}
{"substance": "1T-238 (IFNRRKFFQYFGLSKEAMVEHIQPFILDIWQIHLF)", "Target(s)": "A. naeslundii, F. nucleatum, P. gingivalis,; also recorded: S. epidermidis, S. gordonii,; also recorded: S. mitis, S. mutans, S. oralis,; also recorded: S. salivarious, S. sanguinis"}
{"substance": "1T-169 (FARVRRLHQNRILTQPLTNLKYCLRQPIYSD)", "Target(s)": "A. naeslundii, F. nucleatum, P. gingivalis,; also recorded: S. epidermidis, S. gordonii,; also recorded: S. mitis, S. mutans, S. oralis,; also recorded: S. salivarious, S. sanguinis"}
{"substance": "1T-77 (EMRISRIILDFLFLRKK)", "Target(s)": "S. pneumoniae"}
{"substance": "1T-76 (EMRLSKFFRDFILWRKK)", "Target(s)": "S. pneumoniae"}
{"substance": "1T-17 (NNAIVYIS)", "Target(s)": "S. mutans"}
{"substance": "1T-132 (YSKKLFEYFYFIIFILIRYLIFYKIIQNKNYYINNIAYN)", "Target(s)": "A. naeslundii, F. nucleatum, P. gingivalis,; also recorded: S. epidermidis, S. gordonii,; also recorded: S. mitis, S. mutans, S. oralis,; also recorded: S. salivarious, S. sanguinis"}
{"substance": "1T-190 (IQIIVNAFVEKDKTGAVIEVLYASNNHEKVKAKYEELVAIS)", "Target(s)": "A. naeslundii, F. nucleatum, P. gingivalis,; also recorded: S. epidermidis, S. gordonii,; also recorded: S. mitis, S. mutans, S. oralis,; also recorded: S. salivarious, S. sanguinis"}
{"substance": "1T-146 (RNSADNQTKIDKIRIDISLWDEHLNIVKQGK)", "Target(s)": "A. naeslundii, F. nucleatum, P. gingivalis,; also recorded: T. denticola, S. gordonii,; also recorded: S. mitis, S. mutans, S. oralis,; also recorded: S. salivarious, S. sanguinis"}
{"substance": "1T-158 (WENKPSPLGSIKKLQGLVYRLIGYRHFWV)", "Target(s)": "A. naeslundii, F. nucleatum, P. gingivalis,; also recorded: S. epidermidis, S. gordonii,; also recorded: S. mitis, S. mutans, S. oralis,; also recorded: S. salivarious, S. sanguinis"}
{"substance": "1T-181 (YGKESDP)", "Target(s)": "A. naeslundii, F. nucleatum, P. gingivalis,; also recorded: T. denticola, S. gordonii,; also recorded: S. mitis, S. mutans, S. oralis,; also recorded: S. salivarious, S. sanguinis"}
{"substance": "1T-240 (VILGNGISNIAQTLGQLPNIAWVWIYMVLIAALLEESNVC)", "Target(s)": "A. naeslundii, F. nucleatum, P. gingivalis,; also recorded: S. epidermidis, S. gordonii,; also recorded: S. mitis, S. mutans, S. oralis,; also recorded: S. salivarious, S. sanguinis"}
{"substance": "1T-57 (RLEYRRLETQVEENPESGRRPMRG)", "Target(s)": "P. aeruginosa"}
{"substance": "1T-22 (VPLDDGTRRPEVARNRDKDRED)", "Target(s)": "S. epidermidis, P. aeruginosa"}
{"substance": "1T-133 (YFIKDDNEALSKDWEVIGNDLKGTIDKYGKEFKVR)", "Target(s)": "A. naeslundii, P. gingivalis, S. epidermidis,; also recorded: S. gordonii, S. mitis,; also recorded: S. mutans, S. oralis, S. salivarious,; also recorded: S. sanguinis"}
{"substance": "1T-91 (TSVRPGAAGAAVPAGAAGAAGAGWRWP)", "Target(s)": "S. mitis, S. mutans, S. oralis, S. sanguinis"}
{"substance": "1T-23 (PALVDLSNKEAVWAVLDDHS)", "Target(s)": "S. mutans, P. aeruginosa"}
{"substance": "1T-93 (AMRSVNQA)", "Target(s)": "S. epidermidis, S. gordonii, S. mitis,; also recorded: S. mutans, S. oralis, S. sanguinis"}
{"substance": "1T-123 (LVRRNAVAGRSDGLAGAEQLDLVRLQGVL)", "Target(s)": "S. gordonii"}
